Source: patent EP1985629A1, “Pro-apoptotic molecules and therapeutic uses thereof” (UNIVERSITA DEGLI STUDI DI GENOVA, priority 2007, dated 2008)
Where a SMILES comes first, the peptide text is derived from it. [ ]: non-standard residue; d: D form. Aib = CC(C)(N)C(=O)O

Assays:
[1] = Peptides stability in medium with 10% FBS or in 100% FBS (HPLC-MS); assay type: in vitro ADME; conditions: 37°C
Method: Compounds were added to the medium solution of serum 10% or 100% FBS at the final concentration of 32 µM. Several extraction mixtures were attempted: MeOH; MeOH with 0,1% trifluoroacetic acid (TFA); (H2O: MeOH) 1:1, 1:4, 4;1. A perchloric acid (PCA) protein precipitation protocol was also tried. […] In both cases ice-cold methanol was added to the peptide solution. The mixture was centrifuged and the resulting supernatant was then added with ice-cold methanol (alone or containing 0,1% TFA) at a 1:1 final ratio and this procedure was repeated twice. Before extraction peptides were incubated in 10% FBS or 100% FBS at 37°C and, at different incubation times (0', 6, 24 and 48 hours), a sample of 50 µl was collected to be analyzed by HPLC-MS.

[2] = test system: peripheral blood lymphocytes (PBL); experiment: Viability of normal peripheral blood lymphocytes; assay type: cell-based, human; conditions: for ratio of viable cells, treated versus untreated: two pulses at a 48 h interval, four days, mean ± SE
Method: The leukemic myelomonocytic cell line U937, the T cell leukaemia cell line Jurkat, the Burkitt lymphoma cell line Namalwa were grown in RPMI 1640 medium supplemented with 10% FBS, 1% sodium pyruvate, 1% non essential aminoacids, 1% penicillin/streptomycin. 2.5·10^4 cells were seeded on 48 wells plates (Corning Costar). The treatment was performed on triplicate wells. Drug concentration ranged from 1 µM up to 30 µM, four treatments every 24 h or two treatments every 48 h were performed. Human peripheral blood lymphocytes obtained from healthy volunteers by venipuncture, were isolated by lymphocyte separation medium (Ficoll) density gradient centrifugation. Mononuclear cells from the interphase were washed twice with PBS and resuspended in RPMI 1640 medium containing 10% FCS, glutamine and antibiotics. Phytohemagglutinin (PHA) was added at 1.5 µg/ml final concentration.
PI uptake tests were performed to assess cell viability. Cells suspended in culture medium were incubated for 5 min with 3 µg/ml PI and analysed by flow cytometry. […] At least 10,000 events were acquired on a logarithmic scale from each sample.
Bone marrow aspirates from patients with different leukaemia types were plated in tissue culture medium supplemented with 20% FCS, treated with 072RB twice every 48 h, and followed for 4 days. They were evaluated by flow cytometry DNA/SSC analysis, In Table 3 we show the percentage of [early + late apoptotic cells], according to leukaemia type and Int or 072RB dosage. To further study sensitivity to 072RB of normal cells, peripheral blood lymphocytes (PBL) isolated from four independent healthy donors were subjected to a four-days treatment with 10 µM 072RB. Treatment was performed, as usual, with two pulses at a 48 h interval. Lymphocytes were either un-stimulated or activated by PHA. […] Comparing treated and untreated normal peripheral lymphocytes, the ratio of viable cells between the two groups was 0.87 ± 0.05 (mean ± SE) for quiescent lymphocytes and 0.82 ± 0.057 for proliferating lymphocytes. This effect of 072RB on normal lymphocytes seems especially small if we consider the effects observed in leukaemia cell lines (see supplementary information), and also the effects observed in AML cells from ex vivo experiments: 0.55 ± 0.145 (mean ± SE). Table 3: Effect of 072RB on haematological malignancies (AML: acute myeloid leukaemia; ALL: acute lymphoid leukaemia; NBM: normal bone marrow): percentage of early/late apoptotic cells. Mean values from duplicate experiments are reported. The difference between the two individual values never exceeded 15% of the mean value. Ex vivo isolated cells were treated with either Int or 072RB at day 0, 2 (5, 10 µM), at day 0, 1, 2, 3 (1, 3 µM) and analysed after PI staining at day 4.

Namalwa cells = experiment: Morphologic analysis of apoptosis (PI, confocal microscopy); assay type: cell-based, human; conditions: PI labeled Namalwa cells; and 48 h (072RB), 48 h (Int)
Method: After extensive washes, samples were incubated with PI (50µg/ml in PBS) and 100 units/ml Rnase type A and 10 mM EDTA (to inactivate endogenous nucleases) for 15 min at room temperature. After three washes, cells were put on a micro-slide, covered with a coverslip and analysed with an IX81 microscope equipped with He-Neon […] laser, suitable for PI fluorescence excitation (FV500, Olympus BioSystem). 10-15 fields were analysed with 40x oil/1.35NA or 60x oil/1.40NA objectives and images acquired with the Flowview 4.2b computer program.

Q: With `CC[C@H](C)[C@H](NC(=O)[C@H](CCCNC(=N)N)NC(=O)[C@H](CCCNC(=N)N)NC(=O)[C@H](CC(C)C)NC(=O)[C@H](CCC(=O)O)NC(=O)[C@H](CCC(N)=O)NC(=O)C(C)(C)NC(=O)[C@@H](NC(=O)[C@H](Cc1ccc(O)cc1)NC(=O)[C@@H](NC(=O)[C@H](CCC(=O)O)NC(=O)[C@@H]1CCCN1C(=O)[C@H](CCCNC(=N)N)NC(=O)[C@H](CCSC)NC(=O)[C@@H](N)CC(=O)O)[C@@H](C)CC)[C@@H](C)CC)C(=O)NCC(=O)N[C@@H](CC(=O)O)C(=O)N[C@@H](C)C(=O)N[C@@H](Cc1ccccc1)C(=O)N[C@@H](CC(N)=O)C(=O)NC(C)(C)C(=O)N[C@@H](Cc1ccc(O)cc1)C(=O)N[C@@H](CCCCN)C(=O)N[C@@H](CCCCN)C(=O)N[C@@H](Cc1c[nH]c2ccccc12)C(=O)N[C@@H](CCCCN)C(=O)N[C@@H](CCSC)C(=O)N[C@@H](CCCNC(=N)N)C(=O)N[C@@H](CCCNC(=N)N)C(=O)N[C@@H](CC(N)=O)C(=O)N1CCC[C@H]1C(=O)N[C@@H](Cc1ccccc1)C(=O)N[C@@H](Cc1c[nH]c2ccccc12)C(=O)N[C@H](C(=O)N[C@@H](CCCCN)C(=O)N[C@H](C(=O)N[C@@H](CCC(N)=O)C(=O)N[C@@H](CCCNC(=N)N)C(N)=O)[C@@H](C)CC)[C@@H](C)CC` [Peptide 072RB] (H-DMRPEIYI[Aib]QELRRIGDAFN[Aib]YKKWKMRRNPFWIKIQR-NH2; N-terminus and C-terminus assumed) as the molecule, how does the half-life at 32 µM ([1]; RPMI 1640 medium with 10% fetal bovine serum (FBS), medium (RPMI 1640) with 10% FBS, calculated by linear regression) read?
A: 36.5 h

Q: And the half-life at 32 µM ([1]; bovine, 100% fetal bovine serum (FBS), 100% FBS)?
A: 17.8 h

Q: And the “effect on cell viability and cell proliferation” value ([2]; normal peripheral lymphocytes, data not reported)?
A: cytostatic rather than cytotoxic

Q: What about the “ratio of viable cells, treated versus untreated” value ([2]; proliferating (PHA activated) lymphocytes, 10 µM) of the same molecule?
A: 0.82 ± 0.057

Q: What about the toxicity ([2]; quiescent lymphocytes, 10 µM) of the same molecule?
A: quite negligible

Q: And the “ratio of viable cells, treated versus untreated” value ([2]; quiescent lymphocytes, 10 µM)?
A: 0.87 ± 0.05

Q: And the “chromatin condensation and apoptotic body formation” value (Namalwa cells)?
A: exhibited chromatin condensation and apoptotic body formation
